Assay results from PMC6273991, “Cytotoxic Labdane Diterpenes from Hedychium ellipticum Buch.-Ham. ex Sm” (Molecules, 2016).
≈ marks a conversion by molar mass, not a printed value. Where “and” joins values, the source holds several entries; their conditions need not be identical. Identical values can stand only once. Like-named read-outs stand apart in the source and are kept apart here.

What was measured:
[1] = system: human breast cancer cell (MCF7); experiment: Cytotoxicity, resazurin microplate assay (REMA), MCF7; conditions: for IC50: Homo sapiens, MCF7, 120 h, read-out: Cytotoxicity (IC50) MCF7; for Selectivity Index MCF7: IC50 on Vero cells divided by IC50 for MCF7 cells; for Cytotoxicity (IC50) MCF7: MCF7 cells, REMA, 5 days
[2] = system: human small cell lung cancer cell (NCI-H187); experiment: Cytotoxicity, resazurin microplate assay (REMA), NCI-H187; conditions: for IC50: Homo sapiens, NCI-H187, 120 h, read-out: Cytotoxicity (IC50) NCI-H187; for Selectivity Index NCI-H187: IC50 on Vero cells divided by IC50 for NCI-H187 cells
[3] = in vitro; conditions: African green monkey, Vero cells (African green monkey kidney, non-cancerous)
[4] = system: human oral cavity cancer cell (KB); experiment: Cytotoxicity, resazurin microplate assay (REMA), KB; conditions: for IC50: Homo sapiens, KB, 120 h, read-out: Cytotoxicity (IC50) KB, KB cells, REMA, 5 days; for Selectivity Index KB: IC50 on Vero cells divided by IC50 for KB cells; for Cytotoxicity (IC50) KB: KB cells, REMA, 5 days
[5] = system: Mycobacterium tuberculosis H37Ra; experiment: Antimycobacterial activity, green fluorescent protein microplate assay (GFPMA); assay type: cell-based; conditions: M. tuberculosis H37Ra, MIC = lowest concentration effecting inhibition of ≥90%; for MIC: Mycobacterium tuberculosis, read-out: Anti-TB (MIC)
Method: The antimycobacterial activity was assessed against Mycobacterium tuberculosis H37Ra using the green fluorescent protein microplate assay (GFPMA). The lowest drug concentration effecting and inhibition of ≥90% was considered the MIC.

[6] = system: V-79 cell; set-up: method as in PMID 3222377, PMID 21106458; conditions: cited from earlier work
[7] = system: African green monkey kidney (Vero) cell line; experiment: Cytotoxicity against non-cancerous cells, GFP detection; conditions: 4 days, Undetectable = at concentration ≤50 μg/mL
[8] = system: B16 cells; set-up: method as in PMID 9873721; conditions: cited from earlier work
[9] = system: NCI-H187 cell; conditions: cited from earlier work
[10] = system: SNU-1 cells; set-up: method as in PMID 9873721; conditions: cited from earlier work
[11] = system: P388 cells; set-up: method as in PMID 9873721; conditions: cited from earlier work
[12] = system: MCF-7 cells; set-up: method as in PMID 21106458; conditions: read-out: LC50 MCF-7 cells; cited from earlier work
[13] = system: KB cell; set-up: method as in PMID 18932088; conditions: cited from earlier work
[14] = system: A-549 cell line; set-up: method as in PMID 21106458; conditions: read-out: LC50 A-549 cell line; cited from earlier work
[15] = system: SK-N-SH cells; set-up: method as in PMID 21106458; conditions: read-out: LC50 SK-N-SH cells; cited from earlier work
[16] = system: HeLa cells; set-up: method as in PMID 21106458; conditions: cited from earlier work

Row | Structure (SMILES) | IC50 [1] | IC50 [2] | Selectivity Index NCI-H187 [2] | IC50 at 4 days [3] | IC50 [4] [µg/mL] | IC50 ([4]; value in parentheses) [µM] | Selectivity Index KB [4] | Anti-TB (MIC) [5] | MIC [5] [µg/mL] | further results
1 | C=C1CC[C@H]2C(C)(C)CCC[C@]2(C)[C@H]1C[C@@H](O)C1=CC(O)OC1=O (stereo partly drawn) [Compound 10, zerumin B] | 13.3 µg/mL and 39.7 µM | 6.14 µg/mL and 18.4 µM | 4.0 | 24.7 µg/mL and 73.8 µM | 13.1 | 39.3 | 1.9 | Inactive |  | Selectivity Index MCF7 [1]: 1.9
2 | C=C1CC[C@H]2C(C)(C)CCC[C@]2(C)[C@H]1CC=C(C=O)CC(=O)O (stereo in doubt) [Compound 9, zerumin A] |  | 33.5 µg/mL and 105 µM | 1.5 | 49.5 µg/mL and 155 µM | 47.4 | 149 | 1.0 | Inactive |  | Cytotoxicity (IC50) MCF7 [1]: Inactive
3 | COc1cccc2c1C(=O)c1c(O)c3c(c(O)c1C2=O)C[C@@](O)(C(=O)CO)C[C@@H]3O[C@H]1C[C@H](N)[C@H](O)[C@H](C)O1 [Doxorubicin, reference compound] | 0.663 µg/mL and 1.22 µM | 0.053 µg/mL and 100 nM |  |  | 0.117 | 0.22 |  |  |  | 
4 | C=C1CC[C@H]2C(C)(C)CCC[C@]2(C)[C@H]1C/C=C(/C=O)CC=O [Compound 5, (E)-labda-8(17),12-dien-15,16-dial] | 22.6 µg/mL and 74.6 µM | 11.2 µg/mL and 36.9 µM | 2.0 | 22.5 µg/mL and 74.5 µM | 29.1 | 96 | 0.8 | Inactive |  | Selectivity Index MCF7 [1]: 1.0; IC50 V-79 cell [6]: 18.5 µg/mL (≈ 61.2 µM)
5 | C=C1CCC2C(C)(C)CCC[C@]2(C)[C@H]1/C=C/C1=CC(OC)OC1=O (stereo partly drawn) [Compound 6, 15-methoxylabda-8(17),11,13-trien-15,16-olide] | 49.2 µg/mL and 149 µM | 0.9 µg/mL and 2.72 µM | 50.7 | 45.6 µg/mL and 138 µM | 23.8 | 72.1 | 1.9 | Inactive |  | Selectivity Index MCF7 [1]: 0.9
6 | NNC(=O)c1ccncc1 [isoniazid, reference compound] |  |  |  |  |  |  |  |  | 0.0234 to 0.0468 (≈ 0.171 to 0.341 µM) | 
7 | C=C1CC[C@H]2C(C)(C)CCC[C@]2(C)[C@H]1/C=C/C(C)=O [Compound 2, (E)-15,16-bisnorlabda-8(17),11-dien-13-one] | 49.2 µg/mL and 189 µM | 21.7 µg/mL and 83.2 µM |  | > 192 µM | 37 | 142 |  | Inactive |  | Cytotoxicity (IC50) Vero Cell [7]: Undetectable ^2; melting point: 146 to 147 °C
8 | CC[C@@H](CO)NCCN[C@@H](CC)CO [ethambutol, reference compound] |  |  |  |  |  |  |  |  | 0.234 to 0.469 (≈ 1.15 to 2.3 µM) | 
9 | Cc1c2ccncc2c(C)c2c1[nH]c1ccccc12 [Ellipticine, reference compound] |  | 0.44 µg/mL and 1.79 µM | 3.1 | 1.34 µg/mL and 5.46 µM | 0.302 | 1.23 | 4.5 |  |  | 
10 | C=C1CC[C@H]2C(C)(C)CCC[C@]2(C)[C@H]1/C=C/C(=O)O [Compound 3, (E)-14,15,16-trinorlabda-8(17),11-dien-13-oic acid] |  | 49.2 µg/mL and 188 µM |  | > 191 µM |  |  |  | Inactive |  | Cytotoxicity (IC50) MCF7 [1]: Inactive; Cytotoxicity (IC50) KB [4]: Inactive; Cytotoxicity (IC50) Vero Cell [7]: Undetectable ^2
11 | C=C1CC[C@H]2C(C)(C)CCC[C@]2(C)[C@H]1/C=C/C1=CC(=O)OC1O (stereo partly drawn) [Compound 7, 16-hydroxylabda-8(17),11,13-trien-15,16-olide] | 2.89 µg/mL and 8.75 µM | 0.72 µg/mL and 2.18 µM | 7.5 | 5.37 µg/mL and 16.2 µM | 0.92 | 2.75 | 5.9 |  | 6.25 (≈ 19.8 µM) | Selectivity Index MCF7 [1]: 1.9; Cytotoxicity (IC50) KB [4]: 0.91 µg/mL
12 | CC1COc2c(N3CCN(C)CC3)c(F)cc3c(=O)c(C(=O)O)cn1c23 (stereo not drawn) [oflaxacin, reference compound] |  |  |  |  |  |  |  | 0.391 to 0.781 µg/mL |  | 
13 | C=C1CC[C@H]2C(C)(C)CCC[C@]2(C)[C@H]1/C=C/C1=CCOC1=O [Compound 4, villosin] | 8.5 µg/mL and 28.3 µM | 0.12 µg/mL and 400 nM | >416.7 | > 166 µM | 4.1 | 13.7 |  | Inactive |  | Cytotoxicity (IC50) Vero Cell [7]: Undetectable ^2
14 | CO[C@H]1/C=C/O[C@@]2(C)Oc3c(C)c(O)c4c(O)c(c(/C=N/N5CCN(C)CC5)c(O)c4c3C2=O)NC(=O)/C(C)=C\C=C\[C@H](C)[C@H](O)[C@@H](C)[C@@H](O)[C@@H](C)[C@H](OC(C)=O)[C@@H]1C [rifampicine, reference compound] |  |  |  |  |  |  |  |  | 0.00312 to 0.025 (≈ 0.00379 to 0.0304 µM) | 
15 | C=C1CC[C@H]2C(C)(C)CCC[C@]2(C)[C@H]1/C=C/c1ccoc1 [Compound 1, coronarin E] |  | 18.1 µg/mL and 63.5 µM | 1.4 | 25.4 µg/mL and 89.2 µM | 9.67 | 34 | 2.6 |  | 12.5 (≈ 43.9 µM) | IC50 B16 cells [8]: 18.8 µg/mL (≈ 66.1 µM); IC50 [9]: 49.7 µM; Cytotoxicity (IC50) MCF7 [1]: Inactive; IC50 SNU-1 cells [10]: 8.0 µg/mL (≈ 28.1 µM); IC50 P388 cells [11]: 10.0 µg/mL (≈ 35.2 µM)
16 | [H]/N=C(/N)N[C@H]1[C@H](O)[C@@H](O)[C@H](O[C@@H]2O[C@@H](C)[C@](O)(C=O)[C@H]2O[C@@H]2O[C@@H](CO)[C@H](O)[C@@H](O)[C@@H]2NC)[C@@H](N/C(N)=N\[H])[C@@H]1O [streptomycin, reference compound] |  |  |  |  |  |  |  |  | 0.156 to 0.313 (≈ 0.268 to 0.538 µM) | 
17 | C=C1CC[C@H]2C(C)(C)CCC[C@]2(C)[C@H]1C/C=C1\CC(O)OC1=O (stereo partly drawn) [Compound 8, coronarin D] | 16.2 µg/mL and 51 µM | 25.7 µg/mL and 80.8 µM | 1.9 | 48.9 µg/mL and 154 µM | 40 | 126 | 1.2 | Inactive |  | CC50 [12]: 21.9 µM; IC50 NCI-H187 cell, previous reported [9]: 9.8 µg/mL (≈ 30.8 µM); IC50 KB cell, previous reported [13]: 14.7 µg/mL (≈ 46.2 µM); Selectivity Index MCF7 [1]: 3.0; CC50 [14]: 14 µM; CC50 [15]: 32 µM; IC50 V-79 cell [6]: 17.0 µg/mL (≈ 53.4 µM); LC50 [16]: 60.6 µM
